What was measured:
Type in all cases: biochemical
SULT2A1 = target: T1, SULT2A1 (Homo sapiens, UniProt Q06520); assay: sulfation of [3H]DHEA
T1 sequence (Q06520 1-285): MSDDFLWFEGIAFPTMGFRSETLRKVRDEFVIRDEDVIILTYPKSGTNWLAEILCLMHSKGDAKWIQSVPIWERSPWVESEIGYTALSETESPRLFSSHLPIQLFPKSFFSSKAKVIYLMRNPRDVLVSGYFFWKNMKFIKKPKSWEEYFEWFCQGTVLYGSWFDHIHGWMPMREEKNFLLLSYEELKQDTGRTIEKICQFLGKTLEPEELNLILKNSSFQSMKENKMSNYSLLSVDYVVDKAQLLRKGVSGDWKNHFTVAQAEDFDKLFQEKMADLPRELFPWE

SULT1A3 = SULT1A3 (Homo sapiens, UniProt P0DMM9); assay: inhibition of dopamine sulfation with […]PAPS in BeWo cytosol
SULT1A1 = SULT1A1 (Homo sapiens, UniProt P50225); assay: inhibition of 4-nitrophenol sulfation with […]PAPS in BeWo cytosol
Chain of SULT1A1 (P50225 whole entry): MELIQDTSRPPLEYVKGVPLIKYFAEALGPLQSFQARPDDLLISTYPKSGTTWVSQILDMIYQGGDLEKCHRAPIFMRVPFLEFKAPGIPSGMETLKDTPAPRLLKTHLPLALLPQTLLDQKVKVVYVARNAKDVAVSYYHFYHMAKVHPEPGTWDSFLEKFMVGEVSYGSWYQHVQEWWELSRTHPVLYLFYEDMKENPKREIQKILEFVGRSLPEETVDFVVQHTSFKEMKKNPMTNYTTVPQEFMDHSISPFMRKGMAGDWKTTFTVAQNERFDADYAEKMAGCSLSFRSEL

Chain of SULT1A3 (P0DMM9 whole entry): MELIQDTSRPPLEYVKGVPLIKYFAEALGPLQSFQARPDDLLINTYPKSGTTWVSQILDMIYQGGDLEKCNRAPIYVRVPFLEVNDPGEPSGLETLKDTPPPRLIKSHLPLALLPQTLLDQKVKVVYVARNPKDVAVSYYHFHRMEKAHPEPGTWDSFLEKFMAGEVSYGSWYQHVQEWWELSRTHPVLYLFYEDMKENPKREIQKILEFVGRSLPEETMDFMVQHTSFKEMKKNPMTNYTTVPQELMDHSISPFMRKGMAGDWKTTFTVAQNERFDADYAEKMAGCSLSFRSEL

Row | SMILES | sulfation of [3H]DHEA (3 and 10 μM) by purified SULT2A1 (SULT2A1) | IC50 (SULT1A3) [µM] | IC50 (SULT1A1) [µM]
1 | C[C@]12CC[C@H](O)CC1=CC[C@@H]1[C@@H]2CC[C@]2(C)C(=O)CC[C@@H]12 [DHEA, dehydroepiandrosterone] | Under the same assay conditions, purified SULT2A1 readily sulfated DHEA | – | –
2 | O=[N+]([O-])c1cc(Cl)c(O)c(Cl)c1 [DCNP, 2,6-dichloro-4-nitrophenol] | – | 830 | 0.052

Source: PMC2767256 (Biochemical pharmacology, 2009)
